Our source for the ΔE/min values is patent publication EP0328029A2, “Cholesterol-esterase colour substrate” (BOEHRINGER MANNHEIM GMBH, priority 1988, dated 1989).

Assay [1] concerns Cholesterinesterase (Cholesterinesterhydrolase EC 3.1.1.13). The assay can be described thus: Cholesterol esterase colour test according to Example 2 (photometric release of resorufin). In kind it is biochemical. The following applies: λ = 571 nm, 25°C, 0,1 M Kalium-Phosphat-Puffer pH 6,8. As for the experimental part:
2 mg Cholesterin-glutarsäureresorufinester werden in 0,5 ml Dioxan und 0,5 ml Thesit® gelöst.
Zur Messung werden 850 µl 0,1 M Kalium-Phosphat-Puffer pH 6,8 und 50 µl der oben beschriebenen Substratlösung in einer Küvette gut durchgemischt. Nach Zugabe von 100 µl Probe (Enzymlösung) wird ΔE/min photometrisch bei λ = 571 nm bestimmt (Temperatur = 25°C).
Bei Auswertung über einen Standard bekannter Cholesterinesteraseaktivität wird die Cholesterinesteraseaktivität der Probe wie folgt berechnet [formula] Eine Berechnung der Cholesterinesteraseaktivität der Probe ist auch nach folgender Formel möglich: [formula] Vges : Gesamtvolumen des Testansatzes [cm³] VProbe : Volumen der Probe [cm³] ε : Extinktionskoeefizient des Chromogens bei 571 nm d : Schichtdicke der Küvette [cm] ΔE/min : Extinktionsänderung pro Minute bei 571 nm
Bei den genannten Reaktionsbedingungen beträgt der Extinktionskoeffizient ε = 60,00·cm² ·µmol⁻¹.
(§1) Zum Vergleich wurde der Cholesterinesterase-Test mit Cholesterinoleat als Substrat durchgeführt (Bergmeyer, Methods of Enzymatic Analysis, 3th.Ed., Vol.II, S. 168) und mit dem Farbtest gemäß Beispiel 2 verglichen und der Korrelationskoeffizient ermittelt. Die Ergebnisse zeigen Tabelle I und Figur 1. TABELLE I

For assay [2] the test system is unchanged. The assay can be described thus: Cholesterol esterase test with cholesterol oleate as substrate (Bergmeyer UV method, comparison). Type of assay: biochemical.
Text: Bekannt ist die photometrische Bestimmung im UV. Freigesetztes Cholesterin wird mittels Cholesterinoxidase zu Cholestenon oxidiert, das anhand der Absorptionszunahme bei λ = 240 nm gemessen werden kann (Bergmeyer, Methods of Enzymatic Analysis, 3th.Ed., Vol.II, S.168). Alternativ wird das bei dieser Oxidation gebildete Wasserstoff peroxid durch eine Farb-Reaktion bestimmt (Stähler, Med.Lab. 30, 29 (77)). Diese Methoden sind umständlich und ebenfalls störanfällig.
as §1

As to `CC(C)CCC[C@@H](C)[C@H]1CC[C@H]2[C@@H]3CC=C4C[C@@H](OC(=O)CCCC(=O)Oc5ccc6nc7ccc(=O)cc-7oc6c5)CC[C@]4(C)[C@H]3CC[C@]12C` [Cholesterin-Glutarsäure-Resorufinester, Cholesterin-glutarsäure-resorufinester], the ΔE/min in assay [1] (Konz. 1,0 mg/ml) is 0,009; in assay [1] (Konz. 1,3 mg/ml) it was 0,013; in assay [1] (Konz. 2,0 mg/ml), 0,015; in assay [1] (Konz. 5,0 mg/ml), 0,033; in assay [1] (Konz. 10,0 mg/ml) it was 0,071.
In the case of `CCCCCCCC/C=C\CCCCCCCC(=O)O[C@H]1CC[C@@]2(C)C(=CC[C@H]3[C@@H]4CC[C@H]([C@H](C)CCCC(C)C)[C@@]4(C)CC[C@@H]32)C1` [Cholesterin-Oleat, Cholesterinoleat], the ΔE/min was 0,007 in assay [2] (Konz. 1,0 mg/ml); 0,011 in assay [2] (Konz. 1,3 mg/ml); 0,015 in assay [2] (Konz. 2,0 mg/ml); 0,036 in assay [2] (Konz. 5,0 mg/ml); 0,045 in assay [2] (Konz. 6,6 mg/ml); 0,072 in assay [2] (Konz. 10,0 mg/ml).
